Measurements published in paper PMC4563558, “Discovery of a series of novel phenylpiperazine derivatives as EGFR TK inhibitors” (Scientific Reports, 2015).

How the values were obtained:
Erythrocytes = test: Hemolysis test; format: cell-based; conditions: human erythrocytes, 3 h incubation
Procedure: Hemolytic activity was assayed using fresh capillary human blood. Erythrocytes were collected by centrifuging the blood three times in chilled phosphate buffered saline (PBS at 4 °C) at 1000 × g for 10 min. The final pellet was resuspended in PBS to give a 2% w/v solution. Using a microtitre plate, 100 μL of the erythrocyte solution was added to dextran, PLL, stearyl-PLL or stearyl-PLL+LDL (1–1000/μg/mL) in a volume of […]. Samples were then incubated for 3 h and the microtitre plate was centrifuged then at 1000 × g for 10 min and the supernatants (100 μL) transferred into a new microtitre plate. Hemoglobin release was determined spectrophotometrically using a microtitre plate reader (absorbance at 550 nm). Results were expressed as the amount of released hemoglobin induced by the compounds as a percentage of the total. Hemolysis test was tested according to the guide of biological evaluation of medical device (SFDA, China).

EGFR = target: T1, EGFR (Homo sapiens, UniProt P00533); test: Kinase selectivity assay (kit), EGFR; format: biochemical; conditions: read-out: Inhibition of EGFR IC50
T1 construct: purchased Bio-Swamp
T1 sequence (P00533 25-1210): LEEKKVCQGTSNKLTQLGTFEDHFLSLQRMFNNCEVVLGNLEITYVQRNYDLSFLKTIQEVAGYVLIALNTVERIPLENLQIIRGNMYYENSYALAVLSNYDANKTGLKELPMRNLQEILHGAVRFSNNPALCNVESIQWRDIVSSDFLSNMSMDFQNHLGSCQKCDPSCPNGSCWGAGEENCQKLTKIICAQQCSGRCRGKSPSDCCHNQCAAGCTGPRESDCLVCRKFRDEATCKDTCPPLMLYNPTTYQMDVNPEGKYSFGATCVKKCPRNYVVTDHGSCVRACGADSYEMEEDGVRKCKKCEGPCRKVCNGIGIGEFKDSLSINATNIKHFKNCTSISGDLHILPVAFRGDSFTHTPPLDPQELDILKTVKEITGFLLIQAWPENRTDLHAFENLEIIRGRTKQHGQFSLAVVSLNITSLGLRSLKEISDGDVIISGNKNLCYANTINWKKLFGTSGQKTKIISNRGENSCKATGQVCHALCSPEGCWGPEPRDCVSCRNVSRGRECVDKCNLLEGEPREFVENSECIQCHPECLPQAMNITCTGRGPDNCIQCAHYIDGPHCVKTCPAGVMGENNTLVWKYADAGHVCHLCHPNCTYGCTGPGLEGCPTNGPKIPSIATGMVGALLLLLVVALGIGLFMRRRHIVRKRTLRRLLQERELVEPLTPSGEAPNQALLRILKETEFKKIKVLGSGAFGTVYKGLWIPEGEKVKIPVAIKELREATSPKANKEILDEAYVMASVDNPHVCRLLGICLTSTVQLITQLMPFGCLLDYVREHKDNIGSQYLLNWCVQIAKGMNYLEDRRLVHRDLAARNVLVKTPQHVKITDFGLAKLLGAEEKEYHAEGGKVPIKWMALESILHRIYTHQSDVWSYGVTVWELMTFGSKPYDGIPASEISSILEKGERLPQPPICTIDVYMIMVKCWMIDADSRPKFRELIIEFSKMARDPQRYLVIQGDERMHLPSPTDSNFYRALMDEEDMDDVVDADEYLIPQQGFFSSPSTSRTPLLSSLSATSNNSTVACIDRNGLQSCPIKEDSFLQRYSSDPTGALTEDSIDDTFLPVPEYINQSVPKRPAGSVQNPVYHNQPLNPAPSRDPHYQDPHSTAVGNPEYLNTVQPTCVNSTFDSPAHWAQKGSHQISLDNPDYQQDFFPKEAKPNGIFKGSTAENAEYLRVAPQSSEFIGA
Procedure: (§1) The EGFR, VEGFR2, bFGF and PDGFR Kinase Assay Kit were purchased from Bio-Swamp. The experiments were performed according to the manufacturer’s instructions.

[1] = Acute oral toxicity, bodyweights; format: in vivo; conditions: mice
Procedure: Before the acute toxicity experiment, mice were stopped being served food but water was kept for 3 h. The test substances were dissolved in maize germ oil[24]. The preliminary experiment was performed as follows: Four dose levels, 100, 500, 2000, and 5000 mg/kg body weight and three mice for each level were used. We observed the death and evident toxicity in 7 days to determine the general concentration range. Then the administration doses were graded with geometric progression for ease of the calculation of LD50. Mice were randomly divided into groups (10 mice/group). […] The control groups received maize germ oil only. After the administration, food was withheld for 2 h.

[2] = system: MCF-7, HeLa and A549 cell lines; test: Anticancer activities discussed in text (cell line not specified); format: cell-based, human; conditions: comparison within series and with positive control
Procedure: According to the data presented in Table 1, it could be concluded that the activity of the tested compounds may be correlated to the variation and modifications of structure.
(§2) The in vitro anticancer activities of the prepared compounds against MCF-7, HeLa and A549 cell lines were evaluated as described in the literature[23] with some modifications. Target tumor cells were grown to log phase in DMEM medium supplemented with 10% fetal bovine serum. After reaching a dilution of 1 × 10^5 cells mL^−1 with the medium, 100 μL of the obtained cell suspension was added to each well of 96-well culture plates. Subsequently, incubation was performed at 37 °C in 5% CO2 atmosphere for 48 h before the cytotoxicity assessment. Tested samples at preset concentrations were added to 6 wells with Erlotinib being employed as a positive reference. After 72 h exposure period, 25 μL of PBS containing 2.5 mg mL^−1 of MTT was added to each well. After 4 h, the medium was replaced by 150 μL DMSO to dissolve the purple formazan crystals produced. The absorbance at 570 nm of each well was measured with an ELISA plate reader. The data represented the mean of three independent experiments in triplicate and were expressed as means ± SD. The IC50 value was defined as the concentration at which 50% of the cells could survive.

PDGFR = test: Kinase selectivity assay (kit), PDGFR; format: biochemical; conditions: read-out: Inhibition of PDGFR IC50
Procedure: (§3) To validate whether the above anti-proliferative effect was produced by interaction of EGFR protein and the synthesized compounds, the synthesized compounds were evaluated for their abilities to inhibit the activity of four protein kinases relevant to cancer: EGFR, VEGFR2, bFGF, PDGFR. […] Additionally, the activity data inferred that the IC50 values of these compounds shared a similar tendency with their relevant IC50 values of anti-proliferative assay. […] Therefore, we could conclude that the synthesized inhibitors can inhibit the function of EGFR and the anti-proliferative effect was produced partly by interaction of EGFR protein and the compounds.
as §1

Lung cells = test: MTT assay, human normal lung cell line; format: cell-based; conditions: read-out: IC50 ± SD, Lung cells
Procedure: (§4) To test the antiproliferative activities of the synthesized compounds (see supplementary Scheme S1 and S2), the target compounds were evaluated in vitro antiproliferation assays against three human cancer cell lines (MCF-7, HeLa and A549) and one human normal lung cell line.
as §2

A549 cells = test: Tumor volume in nude mice inoculated with A549 cells; format: in vivo; conditions: for Test/Control (tumor volume): 40 mg/kg/2 days
Procedure: To further evaluate the antitumor effect of compound 3p in vivo, we performed an animal study. Mice were inoculated subcutaneously with A549 cells (5.0 × 10^6) on their shoulders. […]. […] […].
Male BALB/c nude mice, 35–40 days old and weighing 18–22 g, were supplied by Shanghai Laboratory Animal Limited Company. The mice were raised in air-conditioned rooms under controlled lighting (12 h lighting/day) and were fed with standard laboratory food and water ad libitum. Before injection into the mice, the lung cancer cells (A549) were harvested by trypsinization and washed three times with cold serum-free medium and then injected in a total volume of 0.1 mL using a 1-mL latex-free syringe (BD) within 30 min of harvest. Mice were inoculated subcutaneously with A549 cells (5.0 × 10^6) on their shoulders. When the tumor had increased to 100 mm^3 , the mice were equally randomized into 4 groups (with 6 mice/group): saline tumor control group; compound 3p 20 mg/kg/2 days group; compound 3p 40 mg/kg/2 days group; […]. The control group received 0.9% normal saline. Tumor size was measured once every 2 days in two per-pendicular dimensions with Vernier calipers and converted to tumor volume (TV) using the formula: (ab^2)/2, where a and b refer to the longer and shorter dimensions, respectively. The body weight of the animals was measured twice a week at the same time as the tumor dimension measurement and the mortality was monitored daily. After the treatments, all mice were killed and weighed simultaneously, and then tumor was segregated and weighed.

HeLa = test: MTT antiproliferation assay, HeLa; format: cell-based; conditions: Homo sapiens, 72 h exposure, read-out: IC50 ± SD, HeLa
Procedure: as §4, §2

bFGF = test: Kinase selectivity assay (kit), bFGF; format: biochemical; conditions: read-out: Inhibition of bFGF IC50
Procedure: as §3, §1

in vitro = format: cell-based; conditions: mouse
Procedure: The cytotoxic activity in vitro was measured against mouse fibroblast NIH-3T3 cells using the MTT assay. Cells were cultured in a 96-well plate at a density of 5 × 10^5 cells and different concentrations of compounds were respectively added to each well. The incubation was permitted at 37 °C, 5% CO2 atmosphere for 24 h before the cytotoxicity assessments. 20 μL MTT reagent (4 mg/mL) was added per well 4 h before the end of the incubation. Four hours later, the plate was centrifuged at 1200 rcf for 5 min and the supernatants were removed, each well was added with 200 μL DMSO. The absorbance was measured at a wavelength of 490 nm (OD 490 nm) on an ELISA microplate reader. Three replicate wells were used for each concentration and each assay was measured three times, after which the average of IC50 was calculated.

A549 = test: MTT antiproliferation assay, A549; format: cell-based; conditions: Homo sapiens, 72 h exposure, read-out: IC50 ± SD, A549
Procedure: as §4, §2

MCF-7 = test: MTT antiproliferation assay, MCF-7; format: cell-based; conditions: Homo sapiens, MCF7, 72 h exposure, read-out: IC50 ± SD, MCF-7
Procedure: as §4, §2

VEGFR2 = target: T2, VEGFR2 (Homo sapiens, UniProt P35968); test: Kinase selectivity assay (kit), VEGFR2; format: biochemical; conditions: read-out: Inhibition of VEGFR2 IC50
T2 construct: purchased Bio-Swamp
T2 sequence (P35968 20-1356, species assumed): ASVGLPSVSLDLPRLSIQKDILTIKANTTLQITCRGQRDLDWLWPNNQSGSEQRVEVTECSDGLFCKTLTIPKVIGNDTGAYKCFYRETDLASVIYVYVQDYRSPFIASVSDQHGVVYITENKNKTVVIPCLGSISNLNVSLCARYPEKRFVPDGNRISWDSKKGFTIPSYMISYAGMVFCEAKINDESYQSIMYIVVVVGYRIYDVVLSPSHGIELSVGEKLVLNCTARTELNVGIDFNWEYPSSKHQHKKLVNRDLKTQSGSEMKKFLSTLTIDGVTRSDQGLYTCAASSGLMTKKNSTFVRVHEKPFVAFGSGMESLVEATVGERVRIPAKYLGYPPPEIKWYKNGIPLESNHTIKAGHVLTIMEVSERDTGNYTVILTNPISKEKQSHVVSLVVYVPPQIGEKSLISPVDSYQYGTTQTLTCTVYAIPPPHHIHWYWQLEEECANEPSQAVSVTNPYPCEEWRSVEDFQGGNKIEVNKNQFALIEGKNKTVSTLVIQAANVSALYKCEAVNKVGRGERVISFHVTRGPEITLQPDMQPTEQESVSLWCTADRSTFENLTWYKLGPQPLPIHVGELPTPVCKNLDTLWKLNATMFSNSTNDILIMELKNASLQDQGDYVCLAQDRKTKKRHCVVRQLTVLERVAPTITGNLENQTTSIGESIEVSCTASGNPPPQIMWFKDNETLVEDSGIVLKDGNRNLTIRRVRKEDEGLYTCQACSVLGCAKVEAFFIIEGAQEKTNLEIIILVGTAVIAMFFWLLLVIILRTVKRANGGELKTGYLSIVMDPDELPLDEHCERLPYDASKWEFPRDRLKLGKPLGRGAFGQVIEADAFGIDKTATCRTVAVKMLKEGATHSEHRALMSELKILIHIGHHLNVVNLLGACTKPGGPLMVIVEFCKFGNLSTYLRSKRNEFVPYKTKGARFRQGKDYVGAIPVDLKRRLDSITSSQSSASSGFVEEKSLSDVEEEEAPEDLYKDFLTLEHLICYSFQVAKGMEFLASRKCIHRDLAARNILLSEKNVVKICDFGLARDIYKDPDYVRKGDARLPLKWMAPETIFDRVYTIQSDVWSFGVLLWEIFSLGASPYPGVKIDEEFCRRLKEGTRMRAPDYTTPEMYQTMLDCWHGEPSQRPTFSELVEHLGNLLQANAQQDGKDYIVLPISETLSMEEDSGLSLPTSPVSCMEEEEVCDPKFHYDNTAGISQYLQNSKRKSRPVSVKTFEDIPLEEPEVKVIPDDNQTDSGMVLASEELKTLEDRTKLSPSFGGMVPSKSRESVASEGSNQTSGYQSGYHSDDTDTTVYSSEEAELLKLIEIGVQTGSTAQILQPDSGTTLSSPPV
Procedure: as §3, §1

## COc1cc(OC)nc(NC(=O)CN2CCN(c3ccc(Cl)c(Cl)c3)CC2)n1 [3p, 2-(4-(3,4-dichlorophenyl)piperazin-1-yl)-N-(4,6-dimethoxypyrimidin-2-yl)acetamide]
Erythrocytes
  Hemolysis LC30 (lytic concentration 30%): >10000 µg/mL
EGFR
  IC50: 20 ± 3 nM
[1]; day 0
  Bodyweights 0 day ± SD: 22.12 ± 1.13 g
[1]; day 7
  Bodyweights 7 days ± SD: 27.33 ± 1.08 g
[2]
  Anticancer / antitumor activity (in words): most potent anticancer activities
PDGFR
  IC50: 17300 ± 950 nM
Lung cells
  IC50: 189000 ± 3820 nM
A549 cells; 40 mg/kg, day 14
  Weight of tumor: significantly reduced
A549 cells; day 4
  Test/Control (tumor volume): 42.79%
A549 cells; day 6
  Test/Control (tumor volume): 49.61%
A549 cells; day 8
  Test/Control (tumor volume): 50.79%
A549 cells; day 10
  Test/Control (tumor volume): 60.00%
A549 cells; day 12
  Test/Control (tumor volume): 61.22%
A549 cells; 14-day treatment, nude mice
  Effect on mice body weight: did not observe significant growth inhibition of mice body weight
A549 cells; mouse, in vivo
  Mortality during the treatment: none of the mice died
HeLa
  IC50: 80 ± 0.2 nM
bFGF
  IC50: 27100 ± 3170 nM
In vitro
  IC50 at 24 h: 239000 ± 4030 nM
A549
  IC50: 50 ± 0.3 nM
MCF-7
  IC50: 220 ± 1 nM
VEGFR2
  IC50: 2150 ± 60 nM
